# Entries after “also recorded” stand apart in the source; their conditions may differ. Where a name gives a salt, the structure may show the parent alone. Read-outs that look alike come from different tables or passages of the source.
# What was measured:
# [1] = type: physicochemical; design: DSC: unit not given beside the values; conditions: 40° C. and 75% RH; for Stability to the test conditions (in words): 28 day test period
# Method: Identity, Assay, and Purity by HPLC
# Testing was performed on a calibrated and validated Agilent 1200 Rapid Resolution High Performance Liquid Chromatography (HPLC) system designated LC-0430-AD or LC-418-1D. The system comprises a binary SL pump, degasser, high performance autosampler SL with a fraction collector, thermostated column compartment with a 2 valve column switcher, and a DAD SL detector. All standard solutions and samples were prepared in Class A glass volumetric flasks and were placed in autosampler vials. Standard weighings were done using a calibrated Mettler analytical balance. The sample preparations were centrifuged using an Eppendorf microcentrifuge. The primary chromatography data was acquired and integrated using Empower 2 software. Microsoft Office Excel 2003 was used for the calculation of results.
# Solid State Stability of Salts at 40° C. and 75% Humidity:
# Samples of the form to be studied (15-20 mg) were weighed into standard 1.5 mL HPLC vials (32×11.6 mm) and stored uncapped for 0, 7, 14 and 28 days in a 40° C. and 75% RH stability chamber. Samples were removed on the indicated day and capped. Measurements of XRPD, DSC, TGA and HPLC Identity by Purity and Assay measurements were completed on each time point sample.
# [2] = Estimation of water solubility; type: physicochemical; conditions: visual inspection, 10 mg sample
# Method: Estimation of Water Solubility: Ten mg portions of the salt forms to be studied were weighed into a standard 1.5 mL HPLC vial (32×11.6 mm). […] An estimation of solubility was based on the volume of water necessary to dissolve the known weight of sample.
# [3] = Dynamic vapor sorption (DVS), water sorption; type: physicochemical; conditions: DVS, 25° C.
# Method: Dynamic Vapor Sorption (DVS):
# DVS experiments have been carried out using the DVS-HT instrument (Surface Measurement Systems, London, UK). This instrument measures the uptake and loss of vapor gravimetrically using a recording ultra-microbalance with a mass resolution of ±0.1 μg. The vapor partial pressure (±1.0%) around the sample is controlled by mixing saturated and dry carrier gas streams using electronic mass flow controllers. The desired temperature is maintained at ±0.1° C. The samples (1-10 mg) were placed into the DVS-HT and DVS-1 instruments at the desired temperature.
# The sample was loaded and unloaded at 40% RH and 25° C. (typical room conditions). A moisture sorption isotherm was performed as outlined below (2 scans giving 1 complete cycle). The software uses a least squares minimization procedure together with a model of the mass relaxation, to predict an asymptotic value. The measured mass equilibration value must be within 2% of that predicted by the software before proceeding to the next % RH value. The minimum equilibration time was set to 1 hour and the maximum to 4 hours.
compound,measurement,setting,value
COc1cccc2[nH]c3c4c(c5c(c3c12)C(=O)N(CN1CCN(C)CC1)C5=O)CCC4.O=C1CC[C@@H](C(=O)O)N1,COMPOUND A Assay,[1]; day 0,65.5%
same,COMPOUND B Assay,[1]; day 0,0.6%
same,DSC,[1]; day 0,198.2
same,HPLC Purity,[1]; day 0,98.6%
same,TGA,[1]; day 0,0.49%
same,COMPOUND A Assay,[1]; day 7,71.4%
same,COMPOUND B Assay,[1]; day 7,0.6%
same,DSC,[1]; day 7,199.0
same,HPLC Purity,[1]; day 7,98.7%
same,TGA,[1]; day 7,0.54%
same,XRPD,[1]; day 7,No change
same,COMPOUND A Assay,[1]; day 14,60.2%
same,COMPOUND B Assay,[1]; day 14,0.8%
same,DSC,[1]; day 14,198.3
same,HPLC Purity,[1]; day 14,98.2%
same,TGA,[1]; day 14,0.64%
same,XRPD,[1]; day 14,No change
same,COMPOUND A Assay,[1]; day 28,64.0%
same,COMPOUND B Assay,[1]; day 28,1.2%
same,DSC,[1]; day 28,198.4
same,HPLC Purity,[1]; day 28,97.2%
same,XRPD,[1]; day 28,No change
COc1cccc2[nH]c3c4c(c5c(c3c12)C(=O)N(CN1CCN(C)CC1)C5=O)CCC4 [39-1(2)],Estimated Water Solubility,[2],~25 mg/mL
COc1cccc2[nH]c3c4c(c5c(c3c12)C(=O)N(CN1CCN(C)CC1)C5=O)CCC4 [39-2(2)],Estimated Water Solubility,[2],>100 mg/mL
COc1cccc2[nH]c3c4c(c5c(c3c12)C(=O)N(CN1CCN(C)CC1)C5=O)CCC4 [39-3(2)],Estimated Water Solubility,[2],>100 mg/mL
COc1cccc2[nH]c3c4c(c5c(c3c12)C(=O)N(CN1CCN(C)CC1)C5=O)CCC4 [39-5(2)],Estimated Water Solubility,[2],>100 mg/mL
"COc1cccc2[nH]c3c4c(c5c(c3c12)C(=O)N(CN1CCN(C)CC1)C5=O)CCC4 [Acetate Salt, Form A1.5]",Stability to the test conditions (in words),[1],changes throughout the 28 day test period
same,HPLC Purity,[1]; day 0,99.7%
same,TGA,[1]; day 0,21.5%
same,COMPOUND A Assay,"[1]; day 0, HPLC",78.1%
same,COMPOUND B Assay,"[1]; day 0, HPLC",0.2%
same,HPLC Purity,[1]; day 7,99.6%
same,TGA,[1]; day 7,20.0%
same,XRPD,[1]; day 7,Shows hydrate
same,COMPOUND A Assay,"[1]; day 7, HPLC",70.2%
same,COMPOUND B Assay,"[1]; day 7, HPLC",0.1%
same,HPLC Purity,[1]; day 14,99.5%
same,TGA,[1]; day 14,16.1%
same,XRPD,[1]; day 14,Shows hydrate
same,COMPOUND A Assay,"[1]; day 14, HPLC",84.2%
same,COMPOUND B Assay,"[1]; day 14, HPLC",0.2%
same,HPLC Purity,[1]; day 28,99.6%
same,TGA,[1]; day 28,9.6%
same,XRPD,[1]; day 28,"Shows hydrate,"
same,COMPOUND A Assay,"[1]; day 28, HPLC",90.9%
same,COMPOUND B Assay,"[1]; day 28, HPLC",0.3%
same,DVS sorption behaviour (in words),[3],steady weight loss during the drying curves with no equilibration reached
"COc1cccc2[nH]c3c4c(c5c(c3c12)C(=O)N(CN1CCN(C)CC1)C5=O)CCC4 [Glycolate Salt Hydrate, Form A1]",Stability to the test conditions (in words),[1],fairly stable to the test conditions; also recorded: generated the least amount of Compound B
same,HPLC Purity,[1]; day 0,99.8%
same,TGA,[1]; day 0,2.1%
same,COMPOUND A Assay,"[1]; day 0, HPLC",69.9%
same,COMPOUND B Assay,"[1]; day 0, HPLC",0.1%
same,HPLC Purity,[1]; day 7,99.6%
same,TGA,[1]; day 7,2.3%
same,XRPD,[1]; day 7,No change
same,COMPOUND A Assay,"[1]; day 7, HPLC",68.4%
same,COMPOUND B Assay,"[1]; day 7, HPLC",0.1%
same,HPLC Purity,[1]; day 14,99.7%
same,TGA,[1]; day 14,2.6%
same,XRPD,[1]; day 14,No change
same,COMPOUND A Assay,"[1]; day 14, HPLC",73.2%
same,COMPOUND B Assay,"[1]; day 14, HPLC",0.2%
same,HPLC Purity,[1]; day 28,99.5%
same,TGA,[1]; day 28,3.5%
same,XRPD,[1]; day 28,No change
same,COMPOUND A Assay,"[1]; day 28, HPLC",66.8%
same,COMPOUND B Assay,"[1]; day 28, HPLC",0.6%
same,DVS sorption behaviour (in words),[3],surface adsorption with limited bulk absorption throughout the entire RH range
same,Total uptake in moisture at 90% RH,[3]; 90% RH,~3.5%
COc1cccc2[nH]c3c4c(c5c(c3c12)C(=O)N(CN1CCN(C)CC1)C5=O)CCC4 [Sample 13-3],Estimated Water Solubility,[2],50 to 100 mg/mL
COc1cccc2[nH]c3c4c(c5c(c3c12)C(=O)N(CN1CCN(C)CC1)C5=O)CCC4 [Sample 13-4],Estimated Water Solubility,[2],<10 mg/mL
COc1cccc2[nH]c3c4c(c5c(c3c12)C(=O)N(CN1CCN(C)CC1)C5=O)CCC4 [Sample 13-5],Estimated Water Solubility,[2],<10 mg/mL
COc1cccc2[nH]c3c4c(c5c(c3c12)C(=O)N(CN1CCN(C)CC1)C5=O)CCC4 [Sample 13-6],Estimated Water Solubility,[2],>100 mg/mL
COc1cccc2[nH]c3c4c(c5c(c3c12)C(=O)N(CN1CCN(C)CC1)C5=O)CCC4 [Sample 13-7],Estimated Water Solubility,[2],50 to 100 mg/mL
COc1cccc2[nH]c3c4c(c5c(c3c12)C(=O)N(CN1CCN(C)CC1)C5=O)CCC4 [Sample 13-8],Estimated Water Solubility,[2],>100 mg/mL
COc1cccc2[nH]c3c4c(c5c(c3c12)C(=O)N(CN1CCN(C)CC1)C5=O)CCC4 [Sample 13-9],Estimated Water Solubility,[2],<10 mg/mL
COc1cccc2[nH]c3c4c(c5c(c3c12)C(=O)N(CN1CCN(C)CC1)C5=O)CCC4 [Sample 13-10],Estimated Water Solubility,[2],10 to 20 mg/mL
COc1cccc2[nH]c3c4c(c5c(c3c12)C(=O)N(CN1CCN(C)CC1)C5=O)CCC4 [Sample 30-1],Estimated Water Solubility,[2],~20 mg/mL
COc1cccc2[nH]c3c4c(c5c(c3c12)C(=O)N(CN1CCN(C)CC1)C5=O)CCC4 [Sample 30-2],Estimated Water Solubility,[2],>100 mg/mL
COc1cccc2[nH]c3c4c(c5c(c3c12)C(=O)N(CN1CCN(C)CC1)C5=O)CCC4 [Sample 30-3],Estimated Water Solubility,[2],>100 mg/mL
COc1cccc2[nH]c3c4c(c5c(c3c12)C(=O)N(CN1CCN(C)CC1)C5=O)CCC4 [Sample 30-4],Estimated Water Solubility,[2],>100 mg/mL
COc1cccc2[nH]c3c4c(c5c(c3c12)C(=O)N(CN1CCN(C)CC1)C5=O)CCC4 [Sample 30-5],Estimated Water Solubility,[2],~25 mg/mL
COc1cccc2[nH]c3c4c(c5c(c3c12)C(=O)N(CN1CCN(C)CC1)C5=O)CCC4 [Sample 31-1],Estimated Water Solubility,[2],~25 mg/mL
COc1cccc2[nH]c3c4c(c5c(c3c12)C(=O)N(CN1CCN(C)CC1)C5=O)CCC4 [Sample 31-2],Estimated Water Solubility,[2],>100 mg/mL
COc1cccc2[nH]c3c4c(c5c(c3c12)C(=O)N(CN1CCN(C)CC1)C5=O)CCC4 [Sample 31-3],Estimated Water Solubility,[2],>100 mg/mL
COc1cccc2[nH]c3c4c(c5c(c3c12)C(=O)N(CN1CCN(C)CC1)C5=O)CCC4 [Sample 31-4],Estimated Water Solubility,[2],>100 mg/mL
COc1cccc2[nH]c3c4c(c5c(c3c12)C(=O)N(CN1CCN(C)CC1)C5=O)CCC4 [Sample 31-5],Estimated Water Solubility,[2],~25 mg/mL
COc1cccc2[nH]c3c4c(c5c(c3c12)C(=O)N(CN1CCN(C)CC1)C5=O)CCC4 [Sample 39-1],Estimated Water Solubility,[2],~50 mg/mL
COc1cccc2[nH]c3c4c(c5c(c3c12)C(=O)N(CN1CCN(C)CC1)C5=O)CCC4 [Sample 39-2],Estimated Water Solubility,[2],<10 mg/mL
COc1cccc2[nH]c3c4c(c5c(c3c12)C(=O)N(CN1CCN(C)CC1)C5=O)CCC4 [Sample 39-3],Estimated Water Solubility,[2],>100 mg/mL
COc1cccc2[nH]c3c4c(c5c(c3c12)C(=O)N(CN1CCN(C)CC1)C5=O)CCC4 [Sample 39-4],Estimated Water Solubility,[2],>100 mg/mL
COc1cccc2[nH]c3c4c(c5c(c3c12)C(=O)N(CN1CCN(C)CC1)C5=O)CCC4 [Sample 39-5],Estimated Water Solubility,[2],>100 mg/mL
